US9834541B2, “2-aminopyridine compounds” (Merck Patent GmbH, priority 2012, dated 2017)

How the values were obtained:
[1] = tested on: Wnt pathway; assay: Cellular assay for Wnt pathway activity, LS174T-shl-fLuc clone 5 (LS174T-L5) luciferase reporter assay; format: cell-based; conditions: Homo sapiens; LS174T TCF luciferase reporter cells, 24 hours incubation
Text: 1. Cellular Assay for Wnt Pathway Activity LS174T-shl-fLuc Clone 5 (LS174T-L5) Reporter Assay Principle:
This assay is based on an in-vitro luciferase activity readout. The human colon cancer cell line, LS174T was transduced with a lentivirus encoding a short half-life luciferase (with a destabilised PEST sequence construct; construct F1756): 16×TCF/LEF transcription sites—short half life firefly luciferase on a basal pTA promoter—puromycin resistance gene on an EF-1-α promoter). This construct was made using the lentiviral base vector: pCDF1-MCS2-EF1-Puro from System Biosciences (cat. # CD110B-1). The luciferase has a T1/2 of about 60 minutes.
Stable luciferase-expressing clones were selected, using 1 μg/mL puromycin selection and the clones were bulked up.
Compounds that inhibit the Wnt pathway are predicted to inhibit the induction of luciferase transcription by TCF; this will result in reduced luciferase protein production and luciferase signal readout.
Compounds were tested for their Wnt pathway inhibitory activities using the described firefly luciferase reporter cell based assay. An LS174T luciferase reporter cell line was used which contained a T-Cell Factor (TCF) dependent gene promoter firefly luciferase construct.
Compounds, in concentrations from 30 μM to 1 nM, were incubated for 24 hours on the cells. Luciferase activities were determined using the Steady Glo Luciferase Assay System (Promega) and the TOPCOUNT microplate reader (Perkin Elmer). For analysis, the obtained data were normalized against the untreated vehicle control and fitted for determination of the IC50 values using the Excel Fit application of the Excel Software (Microsoft).

[2] = CLint (intrinsic clearance) assay, liver microsomal incubation; format: in vitro ADME, human; conditions: liver microsomes, pH 7.4; human hepatic microsomes, 0.5 mg/mL protein, class symbols
Method: Also shown is the human hepatic microsomal intrinsic clearance (CLint), whereby the following classification is used:
2. CLint (Intrinsic Clearance) Assay
A Tecan Genesis workstation (RWS ASY 150/8) was used to perform the microsomal incubations. Analysis was carried out using a Waters ACQUITY UPLC system coupled to an ABSciex API3000 mass spectrometer. Data analysis was performed using Assay Explorer (Symyx).
Column: Acquity UPLC BEH C18, 2.1×50 mm, 1.7 um (Waters)
Mobile phases: • A=0.1% formic acid in water • B=acetonitrile
Column temperature: 50° C.
0.1 M potassium phosphate buffer pH 7.4 containing 1 mM MgCl2
15 mM NADPH in phosphate buffer
5.0 mg protein/mL liver microsomes in phosphate buffer
Each experiment consists of 12 test and 2 reference compounds. The reference compounds are incubated as a cocktail.
Dilution of test compounds was done in 2 steps from a 10 mM DMSO stock solution. First 4 μL stock solution was added to 196 μL of 20% DMSO in potassium phosphate buffer pH 7.4. In a second step 10 μL of the first dilution were added to 1890 μL potassium phosphate buffer and 100 μL internal standard solution to a final concentration of […].
100 μL of the final compound dilution were aliquoted into a 96 deep well plate. 12.5 μL liver microsomes were added to each well (0.5 mg/mL final protein concentration) and the samples preincubated for 5 min at 37° C. and 800 rpm agitation.
After the preincubation, 250 μL cold acetonitrile were added to the 0 min samples to prevent a reaction. Following this, 12.5 μL NADPH solution were added to all wells to start the incubation, with the exception of the 0 min and 30 min controls without cofactor, where the NADPH was substituted for phosphate buffer.
The incubations were stopped after 5, 10, 20 and 30 min by adding 250 μL cold acetonitrile to the individual wells.
The quenched samples were then centrifuged at 4000 g for 1 h at 4° C. 100 μL of the supernatant were transferred into 96 well plates for analysis.
The metabolic stability of each compound was determined by measurement of the change in LC-MS/MS peak area over time. Assay Explorer software was used to automatically calculate the slope k of the decline. The intrinsic clearance (CLint) of each compound was then calculated according to the formula: CLint(μL/min/mg protein)=k1000/protein concentration.

Row | Structure (SMILES) | IC50 [1] [nM] | microsomal CLint at 0.8 μM [2] [µL/min/mg]
1 | Nc1ncc(-c2ccc3cc[nH]c3c2)c(N2CCC3(CCNC3=O)CC2)c1Cl [Compound 24, 8-[2-Amino-3-chloro-5-(1H-indol-6-yl)-pyridin-4-yl]-2,8-diaza-spiro[4.5] decan-1-one] | 18 | 100 to 150
2 | Cn1ncc2cc(-c3cnc(N)c(F)c3N3CCC4(CCNC4=O)CC3)ccc21 [Compound 64, 8-[2-Amino-3-fluoro-5-(1-methyl-1H-indazol-5-yl)-pyridin-4-yl]-2,8-diaza-spiro[4.5] decan-1-one] | 644 | 10 to 50
3 | Cn1ncc2cc(-c3cnc(N)c(C(F)(F)F)c3N3CCC4(CC3)CC(=O)NC4=O)ccc21 [Compound 49, 8-[2-Amino-5-(1-methyl-1H-indazol-5-yl)-3-trifluoromethyl-pyridin-4-yl]-2,8-diaza-spiro[4.5] decane-1,3-dione] | 4 | 10 to 50
4 | Cn1ncc2cc(-c3cnc(N)c(C(F)(F)F)c3N3CCC4(CCNC4=O)CC3)ccc21 [Compound 39, 8-(2-Amino-5-(1-methyl-1H-indazol-5-yl)-3-(trifluoromethyl)pyridin-4-yl)-2,8-diazaspiro[4.5]decan-1-one] | 35 | 50 to 100
5 | CN1c2ccc(-c3cnc(N)c(Cl)c3N3CCC4(CC3)NCCNC4=O)cc2CS1(=O)=O [Compound 46, 9-[2-Amino-3-chloro-5-(1-methyl-2,2-dioxo-2,3-dihydro-1H-2I6-benzo[c]isothiazol-5-yl)-pyridin-4-yl]-1,4,9-triaza-spiro[5.5] undecan-5-one] | 150 | 50 to 100
6 | Nc1ncc(-c2ccc3oc(=O)[nH]c3c2)c(N2CCC3(CCNC3=O)CC2)c1Cl [Compound 32, 5-[6-Amino-5-chloro-4-(1-oxo-2,8-diaza-spiro[4.5]dec-8-yl)-pyridin-3-yl]-3H-benzooxazol-2-one] | 17 | 10 to 50
7 | Nc1ncc(-c2ccc3c(N)n[nH]c3c2)c(N2CCC3(CC2)CC(=O)NC3=O)c1Cl [Compound 12, 8-[2-Amino-5-(3-amino-1H-indazol-6-yl)-3-chloro-pyridin-4-yl]-2,8-diaza-spiro[4.5] decane-1,3-dione] | 31 | 10 to 50
8 | CN1C(=O)Cc2ccc(-c3cnc(N)c(C(F)(F)F)c3N3CCC4(CCNC4=O)CC3)cc21 [Compound 50, 8-[2-Amino-5-(1-methyl-2-oxo-2,3-dihydro-1H-indol-6-yl)-3-trifluoromethyl-pyridin-4-yl]-2,8-diaza-spiro[4.5] decan-1-one] | 817 | 10 to 50
9 | CN1C(=O)Cc2cc(-c3cnc(N)c(C(F)(F)F)c3N3CCC4(CCNC4=O)CC3)ccc21 [Compound 51, 8-[2-Amino-5-(1-methyl-2-oxo-2,3-dihydro-1H-indol-5-yl)-3-trifluoromethyl-pyridin-4-yl]-2,8-diaza-spiro[4.5] decan-1-one] | 455 | 10 to 50

Results, then the compound that gave them:

Row | IC50 [1] [nM] | microsomal CLint at 0.8 μM [2] [µL/min/mg] | Structure (SMILES)
10 | 1.2 | 10 to 50 | Cn1cc(-c2ccc(-c3cnc(N)c(C(F)(F)F)c3N3CCC4(CC3)CC(=O)NC4=O)cc2)cn1 [Compound 52, 8-{2-Amino-5-[4-(1-methyl-1H-pyrazol-4-yl)-phenyl]-3-trifluoromethyl-pyridin-4-yl}-2,8-diaza-spiro[4.5] decane-1,3-dione]
11 | 670 | 10 to 50 | Nc1ncc(-c2ccccc2)c(N2CCC3(CCNC3=O)CC2)c1Cl [Compound 1, 8-(2-Amino-3-chloro-5-phenyl-pyridin-4-yl)-2,8-diaza-spiro[4.5]decan-1-one]
12 | 4 | 50 to 100 | Cn1ncc2cc(-c3cnc(N)c(Cl)c3N3CCC4(CC3)C(=O)Nc3ccccc34)ccc21 [Compound 31, 1′-(2-Amino-3-chloro-5-(1-methyl-1H-indazol-5-yl)pyridin-4-yl)spiro[indoline-3,4′-piperidin]-2-one]
13 | 6 | 100 to 150 | CN1c2ccc(-c3cnc(N)c(Cl)c3N3CCC4(CCNC4=O)CC3)cc2CS1(=O)=O [Compound 26, 8-(2-Amino-3-chloro-5-(1-methyl-2,2-dioxido-1,3-dihydrobenzo[c]isothiazol-5-yl)pyridin-4-yl)-2,8-diazaspiro[4.5]decan-1-one]
14 | 54 | 10 to 50 | Cn1ncc2ccc(-c3cnc(N)c(Cl)c3N3CCC4(CC3)CNC(=O)O4)cc21 [Compound 20, 8-[2-Amino-3-chloro-5-(1-methyl-1H-indazol-6-yl)-pyridin-4-yl]-1-oxa-3,8-diaza-spiro[4.5] decan-2-one]
15 | 23 | ≥ 150 | CCn1cc(-c2ccc(-c3cnc(N)c(Cl)c3N3CCC4(CCNC4=O)CC3)cc2)cn1 [Compound 70, 8-{2-Amino-3-chloro-5-[4-(1-ethyl-1H-pyrazol-4-yl)-phenyl]-pyridin-4-yl}-2,8-diaza-spiro[4.5] decan-1-one]
16 | 28.6 | 10 to 50 | CN1c2ccc(-c3cnc(N)c(Cl)c3N3CC[C@H](C#N)[C@@H](O)C3)cc2CS1(=O)=O (racemic) [Compound 57, Racemic trans-2′-amino-3′-chloro-3-hydroxy-5′-(1-methyl-2,2-dioxo-2,3-dihydro-1H-2l6-benzo[c]isothiazol-5-yl)-3,4,5,6-tetrahydro-2H-[1,4′]bipyridinyl-4-carbonitrile]
17 | 49 | 10 to 50 | CC(C)(O)Cn1cc(-c2ccc(-c3cnc(N)c(Cl)c3N3CCC4(CCNC4=O)CC3)cc2)cn1 [Compound 67, 8-(2-Amino-3-chloro-5-{4-[1-(2-hydroxy-2-methyl-propyl)-1H-pyrazol-4-yl]-phenyl}-pyridin-4-yl)-2,8-diaza-spiro[4.5] decan-1-one]
18 | 88 | 10 to 50 | CC(C)n1cc(-c2ccc(-c3cnc(N)c(C(F)(F)F)c3N3CCC4(CC3)CNC(=O)O4)cc2)cn1 [Compound 54, 8-{2-Amino-5-[4-(1-isopropyl-1H-pyrazol-4-yl)-phenyl]-3-trifluoro-methyl-pyridin-4-yl}-1-oxa-3,8-diaza-spiro[4.5] decan-2-one]
19 | 170 | 10 to 50 | CC(C)n1cc(-c2ccc(-c3cnc(N)c(Cl)c3N3CCC4(CC3)CNC(=O)O4)cc2)cn1 [Compound 55, 8-{2-Amino-3-chloro-5-[4-(1-isopropyl-1H-pyrazol-4-yl)-phenyl]-pyridin-4-yl}-1-oxa-3,8-diaza-spiro[4.5] decan-2-one]
20 | 31 | < 10 | Cn1cc(-c2ccc(-c3cnc(N)c(Cl)c3N3CCC4(CC3)NC(=O)NC4=O)cc2)cn1 [Compound 2, 8-{2-Amino-3-chloro-5-[4-(1-methyl-1H-pyrazol-4-yl)-phenyl]-pyridin-4-yl}-1,3,8-triaza-spiro[4.5] decane-2,4-dione]
21 | 34 | 50 to 100 | Cn1ncc2cc(-c3cnc(N)c(Cl)c3N3CCC4(CCNC4=O)CC3)ccc21 [Compound 25, 8-(2-Amino-3-chloro-5-(1-methyl-1H-indazol-5-yl)pyridin-4-yl)-2,8-diazaspiro[4.5]decan-1-one]
22 | 531 | 10 to 50 | Cn1cc(-c2ccc(-c3cnc(N)c(Cl)c3N3CC[C@H](C#N)[C@@H](O)C3)cc2)cn1 (racemic) [Compound 56, rac (3R,4R)-2′-Amino-3′-chloro-3-hydroxy-5′-[4-(1-methyl-1H-pyrazol-4-yl)-phenyl]-3,4,5,6-tetrahydro-2H-[1,4′] bipyridinyl-4-carbonitrile]
